Source: patent publication US9351951B2, “Prevention of proteomic and genomic damage by dicarbonyl substrates of Glo 1” (University of Warnick, priority 2010, dated 2016)
Blank lines part the entries; values can stand above or below the compound they belong to.

Assays:
GLO1 promoter (ARE1) = conditions: ARE1 alone, HepG2 cells, 4 μM SFN 24 h
Procedure: Transfection and Luciferase Assay of Custom Vectors For luciferase assays, 2×10^5 HepG2 cells per well were plated into 24-well plates and cultured overnight. The cells were transfected with 0.5 μg reporter vector and 10 ng pRL-TK plasmid using Lipofectamine 2000 according to manufacture's protocol. The empty pGL3-basic vector was used as control. After 24 h, 4 μM SFN was added to the cells and vehicle (DMSO) added to control. After 24 h, the cells were washed with PBS and luciferase activity assay performed immediately or samples stored at −80° C. until analysis. For the reporter assay, 100 μl Cell Culture Lysis Reagent (CCLR, Promega) was added to cell extracts and shaken gently for 30 min. The activity mixture was centrifuged (12,000 g, 5 min, 4° C.) and an aliquot (20 μl) of supernatant used in the reporter assay. The luciferase activity was determined using a Dual Luciferase Reporter Assay System (Promega). The relative luciferase activities were normalized by co-transfection of pRL-TK vector.

BJ fibroblasts [1] = conditions: 2 μM SFN, after 48 h
HMEC-1 endothelial cells = conditions: collagen conditioned with medium from BJ cells incubated with 2 μM SFN for 24 h
Procedure: The culture medium was then removed, incubated with human type IV collagen for 24 h and human microvascular endothelial HMEC-1 cell attachment studied as described^13a. […] The medium was then removed and added to wells of a 96-well plate (96-well; Costar; Corning) that had be prior coated type IV collagen. For the coating, 100-□l of 100 µg/ml of type IV collagen (human placental, type IV, pepsin extracted) was added to each well and incubated for 24 h at 37° C. Wells were then washed with phosphate buffered saline. Collagen coated wells were incubated with medium from BK cell cultures for 24 h at 37° C. and then washed with phosphate buffered saline. HMEC-1 endothelial cells (2.5×10^4 cells/well) were plated on to the collagen substrates and incubated for 1 h at 37° C. Non-adherent cells were removed and adherent cells were quantified by staining with 3-(4,5-dimethylthiazole-2-yl)-2,5-diphenyltetrazolium bromide, lysed with dimethylsulfoxide and the blue formazan product detected, by absorbance at 560 nm (Paul, R G, Bailey, A J: The effect of advanced glycation end-product formation upon cell-matrix interactions. Int J Biochem Cell Biol 31: 653-660, 2004).

BJ fibroblasts [2] = test system: BJ fibroblasts
Description: Normal ageing may be modelled in human cells in vitro by cell senescence.

methylglyoxal = conditions: 24 h post-treatment
Procedure: (§1) Other Methods. Activity of Glo1 was determined by measuring the initial rate of isomerisation of the hemithioacetal formed from methylglyoxal and GSH to S-D-lactoylglutathione followed spectrophotometrically at 240 nm.^43 The concentration of MG in cells and culture medium was determined by stable isotopic dilution analysis liquid chromatography with tandem mass spectrometric detection.^4 ROS formation was assessed with dichlorodihydrofluorescein diacetate (H2DCFDA), monitoring the generation of dichlorofluorescein (DCF) fluorescence. HepG2 cells and BJ fibroblasts were incubated with H2DCFDA for 30 min, washed in PBS and DCF fluorescence quantified by flow cytometry.^44

HepG2 cells [3] = conditions: 2 μM SFN
Procedure: as §1

Glo1 [4] = experiment: Glo1 mRNA by real-time RT-PCR in cultured cells; type: cell-based, human; conditions: for induction of Glo1 expression: known nrf2 activators, data not shown
Procedure: (§2) Cell Culture Human hepatoma HepG2 cells and human BJ fibroblasts were cultured in Eagle's Minimum Essential Medium (MEM) medium with 10% foetal calf serum (FCS) and 2 mM glutamine under an atmosphere of 5% CO2 in air, 100% humidity and 37° C. Where sulforaphane was used, the R-stereoisomer was used. R-Sulforaphane (SFN) and allyl isothiocyanate (AITC) were purchased from Sigma-Aldrich (Poole, Dorset, UK).
Real-Time PCR Total RNA was extracted from cultured cells which were treated with SFN, AITC using RNeasy Mini Kit (QIAGEN). cDNAs were synthesized with oligo (dT)18 primer and BioScript reverse transcriptase (BIOLINE). Human GLO1 and ACTB (β-actin reference gene) mRNA were quantified by real-time RT-PCR SYBR green method on ABI 7500 fast real-time PCR system. The following primers were used to amplify GLO1, forward 5′-[…]-3′ (SEQ ID NO: 5) and reverse 5′-[…]-3′ (SEQ ID NO: 6). The reference gene ACTB was amplified with primers 5′-[…]-3′ SEQ ID NO: 7)(forward) and 5′-[…]-3′ (SEQ ID NO: 8)(reverse).

Glo1 [5] = conditions: 2 μM SFN, over 16 h, BJ fibroblasts
Procedure: as §2

BJ fibroblasts [6] = experiment: cells; conditions: Homo sapiens, Fibroblast, 24 h, read-out: cell viability during exposure to hydrogen peroxide
in vitro = conditions: human, BJ fibroblasts
HepG2 cells [7] = experiment: Frameshift mutation-dependent GFP reporter in HepG2 cells; type: cell-based, human; conditions: 400 μM MG
Procedure: The pEGFP-CA/T12 vector is a reporter for efficiency of transfection while pEGFP-CA13 vector is a reporter of frameshift mutation induced by MG.^30 HepG2 cells (2×10^5 cells/well) were cultured in 12-well plates for 24 h, the MEM medium removed, the cells washed with serum free medium and replaced with DNA/lipofectamine complexes in serum free medium—transfection medium (Lipofectamine 2000 reagent, 2 μl; (1.8 μg pEGFP-CA13 or pEGFP-CA/T12; 2.0 ml serum free medium)—and incubated for 5 h at 37° C. The transfection medium was removed and replaced with complete MEM medium supplemented with 10% FCS and 2 mM glutamine) and incubated for 48 h. Transfection efficiency was assessed quantitatively by flow cytometry. […] Thereafter, cells were washed with phosphate-buffered saline (PBS) and analysed for GFP expression by flow cytometry.

BJ fibroblasts [8] = conditions: scavenging of MG; reference 28; cited from earlier work
HepG2 cells [9] = experiment: Growth inhibition of HepG2 cells by MG; type: cell-based; conditions: Homo sapiens, n=8, read-out: median growth inhibitory concentration

Glo1 transcriptional response of luciferase reporter (GLO1 promoter (ARE1)): maximal induction
Structure (SMILES): C[S@@+]([O-])CCCCN=C=S [SFN, R-Sulforaphane]
cellular protein MG-H1 residue content (BJ fibroblasts [1]): decrease | HMEC-1 endothelial cell adhesion to type IV collagen (HMEC-1 endothelial cells): Improved | effect on Hayflick limit (BJ fibroblasts [2]; BJ cells, 1.0 μM SFN per passage from cumulative PDL 30): allowed escape from the Hayflick limit | Hayflick limit, cumulative PDL (BJ fibroblasts [2]; BJ cells, 2×0.5 μM SFN per passage from cumulative PDL 45, control limit PDL 49): 50.5 | increase in cell number per passage (BJ fibroblasts [2]; BJ fibroblasts, 1.0 μM SFN per passage, beyond cumulative PDL 53): > 3 fold | concentration of methylglyoxal in the cell culture (methylglyoxal; HepG2 culture medium): marked decrease | concentration of MG in cells (methylglyoxal; BJ fibroblasts, 2 μM SFN): decreased concentration | concentration of MG in the cell culture medium (methylglyoxal; BJ fibroblasts, 2 μM SFN): decreased concentration | endogenous ROS (HepG2 cells [3]): decrease | ROS induced by exogenous hydrogen peroxide (HepG2 cells [3]; 20 μM hydrogen peroxide): decrease | time post-treatment at which Glo1 mRNA maximised (Glo1 [4]; 2 μM SFN time course, BJ fibroblasts): 12 h | Glo1 mRNA (Glo1 [4]; dose response, BJ fibroblasts): dose-dependent increase | Glo1 protein (Glo1 [5]): increase in Glo1 protein progressively | viability at 0.5 µM (BJ fibroblasts [6]): 88%

Structure (SMILES): C=CCSSCC=C [diallyldisulphide]
induction of Glo1 expression (Glo1 [4]): not potent inducers

Structure (SMILES): OCc1c[nH]c2ccccc12 [indole-3-carbinol]
induction of Glo1 expression (Glo1 [4]): not potent inducers

Structure (SMILES): OO [hydrogen peroxide]
viability at 200 μM (in vitro): 74%

Structure (SMILES): C=CCN=C=S [AITC, allyl isothiocyanate]
frameshift mutations induced by MG (HepG2 cells [7]; prior 2 μM AITC): prevented | frameshift mutation-dependent GFP induced by MG (HepG2 cells [7]; prior exposure to 2 μM AITC): prevented

Structure (SMILES): N=C(N)NN [aminoguanidine]
effect on cytotoxicity induced by exogenous hydrogen peroxide in vitro (BJ fibroblasts [8]): protective

frameshift mutation-dependent GFP (HepG2 cells [7]): increased | frameshift mutations (HepG2 cells [7]): increased | IC50 (HepG2 cells [9]): 1070 ± 80 µM
Structure (SMILES): CC(=O)C=O [MG, methylglyoxal]

Structure (SMILES): CC(C)(C)c1cc(O)ccc1O [tert-butylhydroquinone]
induction of Glo1 expression (Glo1 [4]): not potent inducers
